Laboratory results taken from PubChem BioAssay (NCI).
“And” between values parts separate entries of the source, which are not always exact repeats. Identical values can stand only once.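 48-hour exposure; five concentrations; linearly interpolated endpoints. GI50 is the concentration that inhibits growth by half. TGI denotes the concentration required for complete inhibition of growth.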

Tests used:
Test in all cases: NCI-60 cell line screen, 48 h
[1] = system: HOP-92 NSCLC
[2] = system: CCRF-CEM leukemia
[3] = system: SNB-75 CNS
[4] = system: BT-549 breast
[5] = system: MALME-3M melanoma
[6] = system: NCI-H23 lung
[7] = system: SNB-19 CNS
[8] = system: NCI-H522 lung
[9] = system: KM12 colon
[10] = system: UACC-62 melanoma
[11] = system: RXF 393 renal
[12] = system: IGROV1 ovarian
[13] = system: UACC-257 melanoma
[14] = system: K-562 leukemia

| Structure (SMILES) | TGI [1] | TGI [2] | TGI [3] | TGI [4] | TGI [5] | TGI [6] | TGI [7] | TGI [8] | TGI [9] | TGI [10] | TGI [11] | TGI [12] | TGI [13] | TGI [14] | GI50 [1] | GI50 [4] | GI50 [5] | GI50 [14] |
| --- | --- | --- | --- | --- | --- | --- | --- | --- | --- | --- | --- | --- | --- | --- | --- | --- | --- | --- |
| COC(=O)/C=C/c1ccc(OP(=O)(O)O)c(OC)c1 | > 100 µM | > 100 µM | > 100 µM | > 100 µM | > 100 µM | > 100 µM | > 100 µM | > 100 µM | > 100 µM | > 100 µM | > 100 µM | > 100 µM | > 100 µM | – | – | – | – | – |
| N#Cc1sc2nc3ccccc3n2c1N | > 100 µM | > 100 µM | > 100 µM | > 100 µM | > 100 µM | > 100 µM | > 100 µM | > 100 µM | 23.6 µM | > 100 µM | 67.6 µM | > 100 µM | > 100 µM | – | – | – | – | – |
| CC(SC(=S)N1CCOCC1)C(=O)Nc1nnc(-c2ccc(Cl)cc2)o1 (configuration not stated) | > 100 µM | – | > 100 µM | > 100 µM | > 100 µM | > 100 µM | > 100 µM | – | – | > 100 µM | > 100 µM | > 100 µM | > 100 µM | – | – | – | – | – |
| Cc1nc2sc3cccc(Cl)c3n2c(=O)c1N=Nc1ccc(Cl)cc1 | > 100 µM | > 100 µM | > 100 µM | > 100 µM | > 100 µM | > 100 µM | > 100 µM | > 100 µM | > 100 µM | – | > 100 µM | > 100 µM | > 100 µM | > 100 µM | – | – | – | – |
| Cc1cc(O)c(/C=N/C(N)=S)c(=O)o1 | > 100 µM | 84.4 µM | > 100 µM | > 100 µM | – | > 100 µM | > 100 µM | > 100 µM | > 100 µM | > 100 µM | > 100 µM | > 100 µM | > 100 µM | – | – | – | – | – |
| Cc1cccc2sc(NC(=O)NS(=O)(=O)n3cnc4ccccc43)nc12 | 38.7 µM | > 100 µM | 63.3 µM | 59.9 µM | 72 µM | 43.6 µM | > 100 µM | 62.9 µM | > 100 µM | 34.3 µM | 49.1 µM | 51.1 µM | 74.8 µM | – | – | – | – | – |
| CC(C)C(Cl)CCC(C)(Cl)C(=O)CBr (configuration not stated) | 23.8 µM | > 100 µM | 32.3 µM | 22.6 µM | 23 µM | 21.8 µM | > 67.3 µM | 3.34 µM | 29.8 µM | 10.2 µM | 7.79 µM | 16.9 µM | 16.6 µM | – | – | – | – | – |
| O=C(CCc1cc(O)cc(O)c1)NCCc1cc(O)cc(OCc2ccccc2)c1 | > 100 µM | – | 76.2 µM | 66.1 µM | – | > 100 µM | > 100 µM | > 100 µM | > 100 µM | > 100 µM | > 100 µM | > 100 µM | > 100 µM | 96.3 µM | – | – | – | – |
| COC(=O)/C=C(\C(=O)OC)c1cc(C)c2cc(C(C)C)ccc(C)c1-2 | 77.9 µM | > 100 µM | – | > 100 µM | > 100 µM | > 100 µM | > 100 µM | 50.3 µM | > 100 µM | > 100 µM | > 100 µM | > 100 µM | – | > 100 µM | – | – | – | – |
| Cc1ccc(S[C@@](C=O)(NC(=O)OCc2ccccc2)C(F)(F)F)cc1 | 65.3 µM | 52.3 µM | 80 µM | 81.8 µM | 78.3 µM | 39.8 µM | 62.4 µM | – | 52.8 µM | 40.4 µM | 31.2 µM | 54.3 µM | > 100 µM | > 100 µM | – | – | – | – |
| CC(N)(CC(O)(C(F)(F)Cl)C(F)(F)Cl)C(=O)O (configuration not stated) | > 10 µM | > 10 µM | > 10 µM | > 10 µM | > 10 µM | > 10 µM | > 10 µM | > 10 µM | > 10 µM | > 10 µM | – | > 10 µM | > 10 µM | > 10 µM | – | – | – | – |
| CC(=O)c1ccc(N=NN2CCCC2)cc1 | > 100 µM | > 100 µM | > 100 µM | > 100 µM | – | > 100 µM | > 100 µM | > 100 µM | > 100 µM | > 100 µM | > 100 µM | > 100 µM | > 100 µM | > 100 µM | – | – | – | – |
| NNc1nnc(CCCCCCCCc2nnc(NN)n2N)n1N | > 100 µM | > 100 µM | > 100 µM | 90.3 µM | – | > 100 µM | > 100 µM | > 100 µM | > 100 µM | – | > 100 µM | > 100 µM | > 100 µM | > 100 µM | – | – | – | – |
| O=c1c(-c2ccccc2)nnc2n(Cc3ccccc3)c3ccccc3n12 | > 100 µM | > 100 µM | > 100 µM | > 100 µM | > 100 µM | > 100 µM | > 100 µM | > 100 µM | > 100 µM | – | > 100 µM | > 100 µM | > 100 µM | – | – | – | – | – |
| O=[N+]([O-])c1ccc(/C=N/Nc2nc3ccccc3[nH]2)o1 | 39.1 µM | 26.6 µM | 36.4 µM | 31.1 µM | 30.7 µM | 43.6 µM | > 100 µM | 41.2 µM | 24.1 µM | – | 28.2 µM | 26.7 µM | > 100 µM | 32.1 µM | – | – | – | – |
| CN=c1sc2c(n1C)C(=O)c1ccccc1C2=O | 29.9 µM | 44.4 µM | 4.33 µM | 3.58 µM | 1.14 µM | 2.38 µM | 10.1 µM | 29.4 µM | 13.5 µM | – | 9.01 µM | > 41.6 µM | 4.59 µM | 12.2 µM | – | – | – | – |
| Cc1cc(N(CCC#N)CCC#N)ccc1/C(N=Nc1ccccc1)=N\NC(=O)c1cc(Cl)ccc1O | – | 96.3 µM | > 100 µM | 57 µM | 78.3 µM | 35.1 µM | > 100 µM | 31 µM | > 100 µM | 27.7 µM | 70.2 µM | > 100 µM | 40.5 µM | > 100 µM | – | – | – | – |
| O=C(NCCC1CNc2ccccc21)OCc1ccccc1 (configuration not stated) | > 100 µM | > 100 µM | – | > 100 µM | > 100 µM | > 100 µM | > 100 µM | > 100 µM | > 100 µM | > 100 µM | > 100 µM | > 100 µM | > 100 µM | > 100 µM | – | – | – | – |
| COC1(OC)c2occc2C(=N)c2ccc(=O)oc21 | > 100 µM | > 100 µM | – | > 100 µM | 33.5 µM | > 100 µM | > 100 µM | > 100 µM | – | > 100 µM | > 100 µM | > 100 µM | > 100 µM | > 100 µM | – | – | – | – |
| COc1cc([C@@H]2c3cc4c(cc3[C@@H](Nc3ccc(NC(=O)c5cc([N+](=O)[O-])cn5C)cc3)[C@H]3COC(=O)[C@H]23)OCO4)cc(OC)c1O | 39.9 µM and 19.7 µM | 0.14 µM | > 63.5 µM | > 100 µM | – | 4.04 µM and 0.546 µM | > 44.5 µM | > 100 µM | – | – | > 100 µM | – | > 65.5 µM | > 100 µM | 0.0549 µM | 0.515 µM | 0.279 µM and 0.115 µM | 0.293 µM |
| Cn1c(CNc2ccc(-c3n[nH]c(=S)n3C)cc2)n[nH]c1=S | > 100 µM | > 100 µM | > 100 µM | > 100 µM | > 100 µM | > 100 µM | > 100 µM | > 100 µM | > 100 µM | – | – | > 100 µM | > 100 µM | > 100 µM | – | – | – | – |
| Cc1c(C)c2c(c(N)c1C#N)C(=O)N(Cc1ccc(S(N)(=O)=O)cc1)C2=O | > 44.6 µM | > 100 µM | > 53.3 µM | > 100 µM | > 100 µM | > 100 µM | 38.7 µM | – | > 100 µM | > 100 µM | 39.3 µM | > 59.7 µM | > 100 µM | > 100 µM | – | – | – | – |
| COc1cc(C2c3cc4c(cc3OC(NN)C2C)OCO4)cc(OC)c1O (configuration not stated) | > 100 µM | – | > 100 µM | 51.3 µM | 40.1 µM | > 100 µM | > 100 µM | 42.2 µM | 41.7 µM | 18.9 µM | > 100 µM | > 100 µM | 93 µM | 12.6 µM | – | – | – | – |
| O=C(NCCN(CCNC(=O)c1cccc(O)c1O)CCNC(=O)c1cccc(O)c1O)c1cccc(O)c1O | > 86.9 µM | – | > 100 µM | > 100 µM | > 52.5 µM | > 57.4 µM | > 100 µM | 15.4 µM | > 100 µM | 48 µM | 94.6 µM | > 72.4 µM | > 100 µM | > 100 µM | – | – | – | – |
| CC(C)(C)OC(=O)N(CCCCNC(=O)C(F)(F)F)CCCNC(=O)C(F)(F)F | > 100 µM | > 100 µM | > 100 µM | > 100 µM | – | > 100 µM | > 100 µM | > 100 µM | > 100 µM | > 100 µM | > 100 µM | > 100 µM | > 100 µM | > 100 µM | – | – | – | – |
| COC(=O)c1c(C)cccc1/C=C1\Cc2ccc(C)c(C)c2C1=O | > 100 µM | – | > 100 µM | > 100 µM | > 100 µM | > 100 µM | > 100 µM | > 100 µM | > 100 µM | > 100 µM | > 100 µM | > 100 µM | > 100 µM | > 100 µM | – | – | – | – |
| CC(=O)c1ccc(Nc2c3c(nc4ccccc24)CCCC3)cc1 | > 88.8 µM | > 100 µM | 22.1 µM | > 41.3 µM | – | 43.4 µM | 99.5 µM | 16.6 µM | > 36 µM | > 56 µM | 72.4 µM | 23.8 µM | > 74 µM | > 100 µM | – | – | – | – |
